# Data reported in patent publication US20020143062A1, “Method to incorporate N-(4-hydroxyphenyl) retinamide in liposomes” (Board of Regents, The University of Texas System, priority 2000, published 2002).
# Like-named read-outs stand apart in the source and are kept apart here.
# What was measured:
# ER-positive MCF-7 cells [1] = test: NO production, nitrite assay (Tables 5 and 7); type: cell-based
# Source text: (§1) Nitric oxide (NO), an important biological second messenger, is known to induce growth inhibition and apoptosis in cells. Nitric oxide (NO) is biosynthesized by isoenzymes called nitric oxide synthases. One such isoenzyme, inducible NOS (iNOS), is present only after cytokine induction, such as interferon-γ (IFN-γ). […] Here, the ability of liposomal 4-HPR and IFN-γ to induce NO production and growth inhibition in breast cancer positive (Table 5) and breast cancer negative (Table 6) cells is examined by nitrite assays and growth inhibition assays, as known to the skilled artisan.
# (§2) It is also known to those skilled in the art that nitric oxide (NO) is a biologic mediator derived from the amino acid L-arginine. A family of enzymes, known as nitric oxide synthase (NOS), act upon L-arginine to oxidize one of the guanidino nitrogens to nitric oxide while citrulline is formed from the remainder of the L-arginine molecule.
# (§3) Liposomal 4-HPR in combination with cyclosporin A, increased iNOS production of NO in breast cancer cells (Table 3-5). […] Furthermore, an increase in the production of NO in these cells was not indicated with other retinoids such as CD437 and ATRA.
# ER-positive MCF-7 cells [2] = test: Growth inhibition, cell count (Table 5); type: cell-based; conditions: 4HPR 1 μM alone; 5 days
# Source text: as §1
# [3] = cited from earlier work
# [4] = Incorporation efficiency of 4-HPR into liposomes (OD345 after/before separation); type: physicochemical
# Description: The mixture was frozen in acetone-dry ice bath, and then dried by lyophilzer. It was stored as a powder and resuspended with saline before use.
# To determine the incorporation efficiency of 4-HPR into liposomes, liposomal 4-HPR powder was resuspended in saline and any free, unincorporated free 4-HPR was separated by centrifugation at 30,000× g for 1 hour. Liposomal 4-HPR was collected as a pellet and washed three times with saline. 4-HPR concentration was determined by absorbance at 345 nm. To remove the interference by liposomal turbidity, absorbance was measured after liposomal 4-HPR before and after separation was diluted with 1:1 mixture of dimethylsulfoxide and water. The incorporation efficiency was calculated by the following equation:
# Incorporation efficiency=OD345 (after separation)/OD345 (before separation)×100%
# MCF-7/ADR = test: Cellular proliferation assay, IC50 of retinoids with/without cyclosporin A; type: cell-based; conditions: for IC50: Homo sapiens, NCI/ADR-RES
# ER-positive MCF-7 cells [5] = test: Growth inhibition, cell count (Table 6); type: cell-based; conditions: 4HPR 1 μM alone, 5 days
# Source text: Nitric oxide (NO), an important biological second messenger, is known to induce growth inhibition and apoptosis in cells. Nitric oxide (NO) is biosynthesized by isoenzymes called nitric oxide synthases. […]
# MCF-7 cells = test: Growth and viability, Celltiter 96 Aqueous (MTS) cell proliferation assay; type: cell-based; conditions: Homo sapiens, MCF7, 96 h, 4 days, % of untreated cells, read-out: Growth and viability (%) after treatment
# Description: (§4) Breast cancer cell lines were plated in 96 well plates in DMEM/F12 medium supplemented with 5% fetal calf serum and incubated with different concentrations of liposomal 4-HPR and free 4-HPR, respectively. At the end of incubation, the growth of cells was determined by the Celltiter 96 Aqueous nonradioactive cell proliferation assay (Promega Corp., Madison, Wis.) according to the manufacturer's protocol. Growth and viability of cells were determined by MTS assay after treatment with 4-HPR for 3 days (BT-474) and 4 days (MCF7). Growth of treated cells was compared with that of untreated cells cultured under the same conditions, and was expressed as % of untreated cells.
# BT-474 cells = test: as above; type: cell-based; conditions: Homo sapiens, BT-474, 72 h, 3 days, % of untreated cells, read-out: Growth and viability (%) after treatment
# Description: as §4
# BT-474 [6] = test: Cellular proliferation assay, IC50 of retinoids with/without cyclosporin A; type: cell-based; conditions: for IC50: Homo sapiens
# MDA-MB-231 = test: as above; type: cell-based; conditions: for IC50: Homo sapiens
# MDA-MB-453 [7] = test: as above; type: cell-based; conditions: for IC50: Homo sapiens
# ER-positive MCF-7 cells [8] = test: NO production, nitrite assay (Table 6); type: cell-based; conditions: 4HPR 1 μM alone, 5 days
# Source text: as §1, §2
# [9] = 100 μM
# Description: The shelf stability of liposomal 4-HPR with free 4-HPR was compared. Liposomal 4-HPR and free 4-HPR were diluted with 0.9% normal saline at 100 μM concentration, and incubated at room temperature under subdued light. At various time points, absorbance at 345 nm was measured as a parameter of 4-HPR stability. All data are expressed as % of absorbance at time zero, which is considered as 100%.
# [10] = system: ER-negative MDA-MB-231 cells; test: NO production, nitrite (Table 8); type: cell-based; conditions: alone or with cyclosporin A 4 μg/ml as labelled, 3 days
# Source text: as §3
# MCF-7/WT = test: Cellular proliferation assay, IC50 of retinoids with/without cyclosporin A; type: cell-based; conditions: for IC50: Homo sapiens
# BT-474 [11] = test: NO production, nitrite (Table 10); type: cell-based; conditions: Herceptin − or + as labelled
# Source text: (§5) Overexpression/amplification of the Her-2/neu oncogene has been associated with poor prognosis for breast cancer.
# MDA-MB-453 [12] = test: NO production, nitrite (Table 10); type: cell-based; conditions: Herceptin − or + as labelled
# Source text: as §5
# SK-Br-3 = test: NO production, nitrite (Table 10); type: cell-based; conditions: Herceptin − or + as labelled
# Source text: as §5
# [13] = without cyclosporin A, read-out: IC50 Without CsA
# [14] = cotreatment with CsA 2 μg/ml, read-out: IC50 With CsA
compound,measurement,setting,value
"CC1=C(/C=C/C(C)=C/C=C/C(C)=C/C(=O)Nc2ccc(O)cc2)C(C)(C)CCC1 [4-HPR, N-(4-hydroxyphenyl) retinamide]",Nitrite (NO production),"ER-positive MCF-7 cells [1]; 4HPR 1 μM alone, 5 days, text: liposomal 4-HPR",72.6 ± 1.7 μM Nitrite /1 × 10^6 cells
same,Nitrite (NO production),"ER-positive MCF-7 cells [1]; 4HPR 1.0 μM, alone or with cyclosporin A 4 μg/ml as labelled, 3 days",12.5 μM Nitrite /1 × 10^6 cells
same,Nitrite (NO production),"ER-positive MCF-7 cells [1]; 4HPR 2.0 μM, alone or with cyclosporin A 4 μg/ml as labelled, 3 days",33.8 μM Nitrite /1 × 10^6 cells
same,Cell count,ER-positive MCF-7 cells [2],20 × 10^4
same,solubility in water,[3],poorly soluble in water
same,incorporation efficiency,[4]; by optimizing ratio of 4-HPR to lipid mixture and ratio of DMPC to soybean oil,up to 96%
same,Incorporation efficiency (%),"[4]; composition column 1 of 7: 4-HPR:Lipid (w/w) 1:17, DMPC:soybean oil 1:0, water in tertiary butyl alcohol 0",60.0%
same,Incorporation efficiency (%),"[4]; composition column 2 of 7: 4-HPR:Lipid 1:17, DMPC:soybean oil 1:0, water in tertiary butyl alcohol 1",81.5%
same,Incorporation efficiency (%),"[4]; composition column 3 of 7: water in tertiary butyl alcohol 1, lipid ratios not resolvable (header spans lost), DMPC:soybean oil 9:1",87.5%
same,Incorporation efficiency (%),"[4]; composition column 4 of 7: water in tertiary butyl alcohol 10, lipid ratios not resolvable (header spans lost)",92.8%
same,Incorporation efficiency (%),"[4]; composition column 5 of 7: water in tertiary butyl alcohol 1, lipid ratios not resolvable (header spans lost), DMPC:soybean oil 8:2",77.5%
same,Incorporation efficiency (%),"[4]; composition column 6 of 7: 4-HPR:Lipid 1:5 (likely), DMPC:soybean oil 9:1, water in tertiary butyl alcohol 10",88.3%
same,Incorporation efficiency (%),"[4]; composition column 7 of 7: 4-HPR:Lipid 1:15, DMPC:soybean oil 9:1, water in tertiary butyl alcohol 10",96.4%
same,-Fold ↑ (IC50 without CsA / with CsA),MCF-7/ADR; CsA 4 μg/ml,2.47 -Fold
same,IC50,"MCF-7/ADR; cotreatment with CsA 4 μg/ml, read-out: IC50 With CsA",2.7 µM
same,IC50,MCF-7/ADR; [13],6.66 µM
same,Cell count,ER-positive MCF-7 cells [5],34 × 10^4
same,viability at 0.1 µM,MCF-7 cells; 0.1 μM 4-HPR,106 ± 7.8%
same,viability at 0.9 µM,MCF-7 cells; 0.9 μM 4-HPR,77.5 ± 5.8%
same,viability at […],MCF-7 cells; 1.5 μM 4-HPR,43.8 ± 5.7%
same,viability at 1.8 µM,MCF-7 cells; 1.8 μM 4-HPR,33.6 ± 2%
same,viability at 3.6 µM,MCF-7 cells; 3.6 μM 4-HPR,17.8 ± 1.5%
same,viability at 0.1 µM,BT-474 cells; 0.1 μM 4-HPR,100 ± 13.4%
same,viability at 0.9 µM,BT-474 cells; 0.9 μM 4-HPR,109 ± 4.1%
same,viability at […],BT-474 cells; 1.5 μM 4-HPR,99.4 ± 12.1%
same,viability at 2.3 µM,BT-474 cells; 2.3 μM 4-HPR,76.9 ± 5.3%
same,viability at 3.8 µM,BT-474 cells; 3.8 μM 4-HPR,52.6 ± 3.7%
same,viability at 9 µM,BT-474 cells; 9.0 μM 4-HPR,17.1 ± 2.8%
same,-Fold ↑ (IC50 without CsA / with CsA),BT-474 [6]; CsA 2 μg/ml,1.81 -Fold
same,IC50,BT-474 [6]; [14],1.99 µM
same,IC50,BT-474 [6]; [13],3.61 µM
same,-Fold ↑ (IC50 without CsA / with CsA),MDA-MB-231; CsA 2 μg/ml,6.37 -Fold
same,IC50,MDA-MB-231; [14],1.23 µM
same,IC50,MDA-MB-231; [13],7.84 µM
same,-Fold ↑ (IC50 without CsA / with CsA),MDA-MB-453 [7]; CsA 2 μg/ml,3.26 -Fold
same,IC50,MDA-MB-453 [7]; [14],1.9 µM
same,IC50,MDA-MB-453 [7]; [13],6.2 µM
same,Nitrite (NO production),ER-positive MCF-7 cells [8],36.9 ± 5.8 μM Nitrite /1 × 10^6 cells
same,% remaining (absorbance at 345 nm as % of time zero),[9]; 0 h,100%
same,% remaining (absorbance at 345 nm as % of time zero),[9]; 24 h,85%
same,% remaining (absorbance at 345 nm as % of time zero),[9]; 48 h,84%
same,% remaining (absorbance at 345 nm as % of time zero),[9]; 72 h,71%
same,% remaining (absorbance at 345 nm as % of time zero),[9]; 96 h,61%
same,% remaining (absorbance at 345 nm as % of time zero),[9]; 120 h,51%
same,% remaining (absorbance at 345 nm as % of time zero),[9]; 168 h,32%
same,Nitrite (NO production),[10]; 4HPR 2.5 μM,22.8 μM Nitrite /1 × 10^6 cells
same,Nitrite (NO production),[10]; 4HPR 6.0 μM,26.7 μM Nitrite /1 × 10^6 cells
same,-Fold ↑ (IC50 without CsA / with CsA),MCF-7/WT; CsA 2 μg/ml,3.11 -Fold
same,IC50,"MCF-7/WT; MCF7, cotreatment with CsA 2 μg/ml, read-out: IC50 With CsA",1.21 µM
same,IC50,"MCF-7/WT; MCF7, without cyclosporin A, read-out: IC50 Without CsA",3.76 µM
same,Nitrite (NO production),BT-474 [11]; 4HPR 1 μM,45.8 ± 0. μM Nitrite /1 × 10^6 cells
same,Nitrite (NO production),BT-474 [11]; 4HPR 2.5 μM,146.9 ± 2.8 μM Nitrite /1 × 10^6 cells
same,Nitrite (NO production),MDA-MB-453 [12]; 4HPR 1 μM,30.9 ± 1.5 μM Nitrite /1 × 10^6 cells
same,Nitrite (NO production),MDA-MB-453 [12]; 4HPR 2.5 μM,68.1 ± 3.4 μM Nitrite /1 × 10^6 cells
same,Nitrite (NO production),SK-Br-3; 4HPR 1 μM,34.9 ± 1.2 μM Nitrite /1 × 10^6 cells
same,Nitrite (NO production),SK-Br-3; 4HPR 2.5 μM,75.2 ± 5.1 μM Nitrite /1 × 10^6 cells
